In the NIST ThermoML archive (doi:10.1021/je5009334):
± gives the expanded uncertainty stated by the source.

Experiment: xn = mol fraction of the nth substance listed
Conditions: 101 kPa, Liquid; for speed of sound: Sing-around technique in a fixed-path interferometer; for mass density: Vibrating tube method

OCCc1ccccc1 [2-phenylethanol] + CCC(O)CO
Conditions	mass density [kg/m3]	speed of sound [m/s]
298.15 K, x1 = 0.1	1000.43 ± 0.23	1461.6 ± 1.3
298.15 K, x1 = 0.2	1002.46 ± 0.23	1471.1 ± 1.3
298.15 K, x1 = 0.3	1004.33 ± 0.23	1479.4 ± 1.3
298.15 K, x1 = 0.4	1006.16 ± 0.24	1487.8 ± 1.3
298.15 K, x1 = 0.5	1007.9 ± 0.24	1495.7 ± 1.3
298.15 K, x1 = 0.6	1009.62 ± 0.24	1502.9 ± 1.3
298.15 K, x1 = 0.7	1011.27 ± 0.24	1509.7 ± 1.3
298.15 K, x1 = 0.8	1012.87 ± 0.24	1515.6 ± 1.3
298.15 K, x1 = 0.9	1014.52 ± 0.24	1521.3 ± 1.3
298.15 K, x1 = 1	1016.14 ± 0.24	1526.1 ± 1.3
303.15 K, x1 = 0.1	996.641 ± 0.23	1446.7 ± 1.3
303.15 K, x1 = 0.2	998.651 ± 0.23	1456.2 ± 1.3
303.15 K, x1 = 0.3	1000.5 ± 0.23	1464.1 ± 1.3
303.15 K, x1 = 0.4	1002.32 ± 0.23	1472.3 ± 1.3
303.15 K, x1 = 0.5	1004.07 ± 0.23	1480 ± 1.3
303.15 K, x1 = 0.6	1005.79 ± 0.24	1487.1 ± 1.3
303.15 K, x1 = 0.7	1007.45 ± 0.24	1494.1 ± 1.3
303.15 K, x1 = 0.8	1009.06 ± 0.24	1499.7 ± 1.3
303.15 K, x1 = 0.9	1010.73 ± 0.24	1505.3 ± 1.3
303.15 K, x1 = 1	1012.39 ± 0.24	1510.5 ± 1.3
308.15 K, x1 = 0.1	992.825 ± 0.23	1431.8 ± 1.3
308.15 K, x1 = 0.2	994.816 ± 0.23	1441.2 ± 1.3
308.15 K, x1 = 0.3	996.652 ± 0.23	1448.9 ± 1.3
308.15 K, x1 = 0.4	998.462 ± 0.23	1456.9 ± 1.3
308.15 K, x1 = 0.5	1000.2 ± 0.23	1464.5 ± 1.3
308.15 K, x1 = 0.6	1001.93 ± 0.23	1471.4 ± 1.3
308.15 K, x1 = 0.7	1003.61 ± 0.23	1478.4 ± 1.3
308.15 K, x1 = 0.8	1005.25 ± 0.23	1483.8 ± 1.3
308.15 K, x1 = 0.9	1006.92 ± 0.24	1489.5 ± 1.3
308.15 K, x1 = 1	1008.61 ± 0.24	1494.7 ± 1.3
313.15 K, x1 = 0.1	988.976 ± 0.23	1417.1 ± 1.3
313.15 K, x1 = 0.2	990.951 ± 0.23	1426.2 ± 1.3
313.15 K, x1 = 0.3	992.775 ± 0.23	1433.8 ± 1.3
313.15 K, x1 = 0.4	994.579 ± 0.23	1441.5 ± 1.3
313.15 K, x1 = 0.5	996.32 ± 0.23	1449 ± 1.3
313.15 K, x1 = 0.6	998.053 ± 0.23	1455.8 ± 1.3
313.15 K, x1 = 0.7	999.73 ± 0.23	1462.3 ± 1.3
313.15 K, x1 = 0.8	1001.39 ± 0.23	1468.1 ± 1.3
313.15 K, x1 = 0.9	1003.09 ± 0.23	1473.8 ± 1.3
313.15 K, x1 = 1	1004.75 ± 0.23	1479.2 ± 1.3
318.15 K, x1 = 0.1	985.093 ± 0.23	1402.3 ± 1.2
318.15 K, x1 = 0.2	987.058 ± 0.23	1411.3 ± 1.3
318.15 K, x1 = 0.3	988.872 ± 0.23	1418.7 ± 1.3
318.15 K, x1 = 0.4	990.674 ± 0.23	1426.3 ± 1.3
318.15 K, x1 = 0.5	992.412 ± 0.23	1433.5 ± 1.3
318.15 K, x1 = 0.6	994.121 ± 0.23	1440.5 ± 1.3
318.15 K, x1 = 0.7	995.794 ± 0.23	1446.4 ± 1.3
318.15 K, x1 = 0.8	997.515 ± 0.23	1452.4 ± 1.3
318.15 K, x1 = 0.9	999.245 ± 0.23	1458.1 ± 1.3
318.15 K, x1 = 1	1000.93 ± 0.23	1463.2 ± 1.3
323.15 K, x1 = 0.1	981.261 ± 0.23	1388.2 ± 1.2
323.15 K, x1 = 0.2	983.126 ± 0.23	1396 ± 1.3
323.15 K, x1 = 0.3	984.949 ± 0.23	1403.8 ± 1.3
323.15 K, x1 = 0.4	986.752 ± 0.23	1411.3 ± 1.3
323.15 K, x1 = 0.5	988.495 ± 0.23	1418.6 ± 1.3
323.15 K, x1 = 0.6	990.215 ± 0.23	1425.2 ± 1.3
323.15 K, x1 = 0.7	991.945 ± 0.23	1431.3 ± 1.3
323.15 K, x1 = 0.8	993.644 ± 0.23	1437.1 ± 1.3
323.15 K, x1 = 0.9	995.386 ± 0.23	1442.8 ± 1.3
323.15 K, x1 = 1	997.075 ± 0.23	1447.7 ± 1.3

CC(O)CCO (stereo not given) [1,3-butanediol] + CCC(O)CO
Conditions	mass density [kg/m3]	speed of sound [m/s]
298.15 K, x2 = 0	1001.82 ± 0.84	1527.8 ± 2.1
298.15 K, x2 = 0.1	1001.83 ± 0.76	1523.2 ± 2.1
298.15 K, x2 = 0.2	1001.78 ± 0.69	1517.9 ± 2
298.15 K, x2 = 0.3	1001.74 ± 0.61	1512.7 ± 1.9
298.15 K, x2 = 0.4	1001.61 ± 0.55	1507.1 ± 1.8
298.15 K, x2 = 0.5	1001.24 ± 0.48	1498.9 ± 1.7
298.15 K, x2 = 0.6	1000.94 ± 0.42	1492.2 ± 1.6
298.15 K, x2 = 0.7	1000.36 ± 0.37	1482.6 ± 1.5
298.15 K, x2 = 0.8	999.812 ± 0.32	1473.2 ± 1.4
298.15 K, x2 = 0.9	999.175 ± 0.27	1463.1 ± 1.4
303.15 K, x2 = 0	998.418 ± 0.84	1514.1 ± 2.1
303.15 K, x2 = 0.1	998.382 ± 0.76	1509 ± 2.1
303.15 K, x2 = 0.2	998.283 ± 0.68	1503.9 ± 2
303.15 K, x2 = 0.3	998.2 ± 0.61	1498.2 ± 1.9
303.15 K, x2 = 0.4	998.02 ± 0.54	1492.5 ± 1.8
303.15 K, x2 = 0.5	997.617 ± 0.48	1484.3 ± 1.7
303.15 K, x2 = 0.6	997.284 ± 0.42	1477.4 ± 1.6
303.15 K, x2 = 0.7	996.675 ± 0.37	1468 ± 1.5
303.15 K, x2 = 0.8	996.1 ± 0.32	1458.5 ± 1.4
303.15 K, x2 = 0.9	995.436 ± 0.27	1448.3 ± 1.4
308.15 K, x2 = 0	994.987 ± 0.83	1500.2 ± 2.1
308.15 K, x2 = 0.1	994.902 ± 0.75	1494.9 ± 2.1
308.15 K, x2 = 0.2	994.756 ± 0.68	1489.6 ± 2
308.15 K, x2 = 0.3	994.626 ± 0.61	1483.8 ± 1.9
308.15 K, x2 = 0.4	994.403 ± 0.54	1478 ± 1.8
308.15 K, x2 = 0.5	993.965 ± 0.48	1469.7 ± 1.7
308.15 K, x2 = 0.6	993.596 ± 0.42	1462.7 ± 1.6
308.15 K, x2 = 0.7	992.955 ± 0.37	1453.3 ± 1.5
308.15 K, x2 = 0.8	992.352 ± 0.32	1443.8 ± 1.4
308.15 K, x2 = 0.9	991.664 ± 0.27	1433.7 ± 1.3
313.15 K, x2 = 0	991.528 ± 0.83	1486.3 ± 2.1
313.15 K, x2 = 0.1	991.39 ± 0.75	1480.8 ± 2
313.15 K, x2 = 0.2	991.196 ± 0.67	1475.3 ± 2
313.15 K, x2 = 0.3	991.02 ± 0.6	1469.3 ± 1.9
313.15 K, x2 = 0.4	990.753 ± 0.54	1463.5 ± 1.8
313.15 K, x2 = 0.5	990.276 ± 0.48	1455.1 ± 1.7
313.15 K, x2 = 0.6	989.874 ± 0.42	1448 ± 1.6
313.15 K, x2 = 0.7	989.201 ± 0.37	1438.5 ± 1.5
313.15 K, x2 = 0.8	988.572 ± 0.32	1429.1 ± 1.4
313.15 K, x2 = 0.9	987.858 ± 0.27	1419 ± 1.3
318.15 K, x2 = 0	988.035 ± 0.82	1472.3 ± 2.1
318.15 K, x2 = 0.1	987.845 ± 0.74	1466.5 ± 2
318.15 K, x2 = 0.2	987.595 ± 0.67	1460.6 ± 2
318.15 K, x2 = 0.3	987.379 ± 0.6	1454.9 ± 1.9
318.15 K, x2 = 0.4	987.07 ± 0.54	1449 ± 1.8
318.15 K, x2 = 0.5	986.554 ± 0.47	1440.5 ± 1.7
318.15 K, x2 = 0.6	986.118 ± 0.42	1433.3 ± 1.6
318.15 K, x2 = 0.7	985.412 ± 0.36	1423.9 ± 1.5
318.15 K, x2 = 0.8	984.756 ± 0.32	1414.3 ± 1.4
318.15 K, x2 = 0.9	984.01 ± 0.27	1404.4 ± 1.3
323.15 K, x2 = 0	984.506 ± 0.82	1458.3 ± 2.1
323.15 K, x2 = 0.1	984.262 ± 0.74	1452.5 ± 2
323.15 K, x2 = 0.2	983.961 ± 0.67	1446.2 ± 2
323.15 K, x2 = 0.3	983.701 ± 0.6	1440.4 ± 1.9
323.15 K, x2 = 0.4	983.35 ± 0.53	1434.3 ± 1.8
323.15 K, x2 = 0.5	982.795 ± 0.47	1425.8 ± 1.7
323.15 K, x2 = 0.6	982.326 ± 0.42	1418.6 ± 1.6
323.15 K, x2 = 0.7	981.586 ± 0.36	1409.1 ± 1.5
323.15 K, x2 = 0.8	980.82 ± 0.32	1399.6 ± 1.4
323.15 K, x2 = 0.9	980.034 ± 0.27	1390.1 ± 1.3
